In article PMC8351955, “Targeting Mycobacterium tuberculosis response to environmental cues for the development of effective antitubercular drugs” (PLoS Biology, 2021):
Where “and” joins values, the source holds several entries; their conditions need not be identical. Equal entries are not always repeated. Where two headings read alike, the source gives them in different places.

Legend:
[1] = system: Mtb growth in J774 macrophage-like cells; test: J774 infection in 96-well plates, mKO fluorescence 6 days post-infection; format: cell-based, Mycobacterium tuberculosis; details: for % Growth: Fig. 2D, DMSO = 100
Procedure: For J774 infection in 96-well plates, 1.8 × 10^5 J774 cells were seeded per well in 180 μl of J774 infection media 1 day prior to infection. On the day of the assay, log-phase Mtb constitutively expressing mKO were pelleted and resuspended in 1 ml basal uptake buffer, passed 6× through a tuberculin syringe with a 25 G × 5/8″ needle, then resuspended in J774 infection media to a final OD600 = 0.2. Media was removed from 96-well plate containing the J774 cells, with 140 μl of fresh J774 infection media added back to each well. A volume of 40 μl of the Mtb suspension at OD600 = 0.2 was added to each well, followed by addition of appropriate concentration of compound or DMSO in a 20-μl final volume in J774 infection media (compound final concentration 10 μM, rifampicin final concentration 5 μM, DMSO final concentration 0.1%/well). Bacterial mKO fluorescence was read immediately after infection using a Biotek Synergy Neo2 microplate reader (bottom read monochromator, excitation 543/10 nm, emission 565/10 nm), and again 6 days post-infection. Plates were kept in humidified ziplock bags in a 37°C, 5% CO2 incubator. mKO fluorescence in DMSO-treated control samples were defined as 100% growth, and fluorescence observed in treatment conditions calculated as a percentage from that set value.

[2] = system: CDC1551(rv2390c′::GFP) reporter Mtb strain; details: for Normalized % induction: Fig. 2C, DMSO = 100
Mtb [3] = test: Mtb growth assay in cholesterol medium (OD600); details: for OD600: Fig. 2G
From the text: (§1) Bacterial growth was tracked by measuring OD600 every 3 days for 12 days. […] Bacterial growth was tracked by measurement of OD600 every 3 days over 12 days.

Mtb [4] = test: Mtb growth assay in standard 7H9 medium (OD600); details: Fig. 2F
From the text: as §1

[5] = system: CDC1551(rv2390c′::GFP) reporter Mtb strain, response to high [Cl−]; test: microbe, parasite or virus in culture; format: cell-based, Mycobacterium tuberculosis; details: for activity at 10 µM / activity at 20 µM: 144 h; for activity at 20 µM: read-out: rv2390c'::GFP validation assay NPA% at 20 µM compound
[6] = system: CDC1551(rv1405c′::GFP) reporter Mtb strain; test: microbe, parasite or virus in culture; format: cell-based, Mycobacterium tuberculosis; details: for activity at 10 µM: read-out: rv1405c'::GFP secondary assay NPA% at 10 µM compound; for activity at 20 µM: read-out: rv1405c'::GFP secondary assay NPA% at 20 µM compound
[7] = system: Mtb growth in J774 murine macrophage-like cells; test: microbe, parasite or virus in culture; format: cell-based, Mycobacterium tuberculosis; details: Mycobacterium tuberculosis; for inhibition at 10 µM: read-out: J774 tertiary assay % inhibition compared to Rif at 10 µM compound
[8] = Mycobacterium tuberculosis, pH 6.4, […], DMSO positive control = 100%, read-out: Primary screen rv2390c'::GFP NPA%
[9] = Mycobacterium tuberculosis, 10 µM, pH 6.4, 250 mM NaCl, 6 days, read-out: rv2390c'::GFP validation assay NPA% at 10 µM compound
[10] = Mycobacterium tuberculosis, pH 6.4, 250 mM NaCl, 6 days
[11] = J774, 144 h, read-out: J774 tertiary assay % inhibition compared to Rif at 20 µM compound

## CCSc1ncc(CN2CCN(c3nc4ccccc4s3)CC2)cn1 [JSF-4298, 2-(4-((2-(ethylthio)pyrimidin-5-yl)methyl)piperazin-1-yl)benzo[d]thiazole]
[1]; 10 μM, 6 days post-infection
  Inhibition of Mtb growth in J774 cells: continuing to demonstrate the phenotypes seen with the parental C6 compound
[1]; average of 4 replicates
  % Growth: 72.2652%
[1]; individual replicates
  % Growth: 65.6342% and 77.3722% and 76.7437% and 69.3109%
[2]; average of 3 replicates
  Normalized % induction: 128.692%
[2]; individual replicates
  Normalized % induction: 127.109% and 127.993% and 130.974%
[2]; pH 7
  Ability to increase rv2390c′::GFP reporter signal in high [Cl−]: continuing to demonstrate the phenotypes seen with the parental C6 compound
Mtb [3]; 10 μM, OD600 over 12 days
  Inhibition of Mtb growth in cholesterol media: continuing to demonstrate the phenotypes seen with the parental C6 compound
Mtb [3]; day 3, average
  OD600: 0.06
Mtb [3]; day 3, individual replicates
  OD600: 0.06
Mtb [3]; day 6, average
  OD600: 0.09333
Mtb [3]; day 6, individual replicates
  OD600: 0.08 and 0.1 (2×)
Mtb [3]; day 9, average
  OD600: 0.1333
Mtb [3]; day 9, individual replicates
  OD600: 0.14 (2×) and 0.12
Mtb [3]; day 12, average
  OD600: 0.1533
Mtb [3]; day 12, individual replicates
  OD600: 0.16 (2×) and 0.14
Mtb [4]; day 3, average
  OD600: 0.1867
Mtb [4]; day 3, individual replicates
  OD600: 0.2 and 0.18 (2×)
Mtb [4]; day 6, average
  OD600: 0.38
Mtb [4]; day 6, individual replicates
  OD600: 0.36 and 0.38 and 0.4
Mtb [4]; day 9, average
  OD600: 0.5067
Mtb [4]; day 9, individual replicates
  OD600: 0.5 (2×) and 0.52
Mtb [4]; day 12, average
  OD600: 0.6467
Mtb [4]; day 12, individual replicates
  OD600: 0.64 (2×) and 0.66

## N=C1SCC(=O)N1c1ncc(Cc2ccccc2)s1 [RU-0270641, N=C1SCC(=O)N1C1=NC=C(CC2=CC=CC=C2)S1]
[5]; [8]
  activity at 10 µM: 42.5%
[5]; [9]
  activity at 10 µM: 69 ± 5%
[5]; [10]
  activity at 20 µM: 33.9 ± 6.5%
[6]; Mycobacterium tuberculosis
  activity at 10 µM: 79.6 ± 11%
  activity at 20 µM: 110 ± 12.2%
[7]; J774, 144 h
  inhibition at 10 µM: 12.1 ± 10.5%
[7]; [11]
  inhibition at 20 µM: 28.8 ± 4.5%

## O=C(Nc1cccc(C(F)(F)F)c1)c1n[nH]c(=O)c2ccccc12 [RU-0270645, FC(F)(F)C1=CC(NC(=O)C2=NNC(=O)C3=C2C=CC=C3)=CC=C1]
[5]; 10 uM
  validation NPI at 10 uM: 143
[5]; 20 uM
  validation NPI at 20 uM: 153
[5]; [8]
  activity at 10 µM: 155%
[5]; [9]
  activity at 10 µM: 142 ± 8.2%
[5]; [10]
  activity at 20 µM: 152 ± 12.1%
[5]; Mycobacterium tuberculosis, read-out: ShuminTan.MtbChloride.Validation: IC50
  IC50: < 39.1 nM
[5]; primary screen, Sheet2
  ShuminTan.MtbChloride.Primary: NPI%: 154.973%
[6]; 10 uM
  rv1405c assay NPI at 10 uM: 93.5
[6]; 20 uM
  rv1405c assay NPI at 20 uM: 138
[6]; Mycobacterium tuberculosis, read-out: ShuminTan.MtbChloride.Secondary: IC50
  IC50: < 39.1 nM
[6]; Mycobacterium tuberculosis
  activity at 10 µM: 93.4 ± 11.5%
  activity at 20 µM: 139 ± 4.6%
[7]; J774, read-out: %inhibition compared to Rif in J774 at 20 uM
  inhibition at 20 µM: 17.7%
[7]; J774 dose response 0.039-20 µM, read-out: ShuminTan.Mtb.Validation.Macrophage: IC50
  IC50: > 20000 nM

## CN(CC(O)c1ccccc1Cl)C1CCc2ccccc21 (stereo not shown) [RU-0271187, CN(CC(O)C1=C(Cl)C=CC=C1)C1CCC2=C1C=CC=C2]
[5]; [8]
  activity at 10 µM: 166%
[5]; [9]
  activity at 10 µM: 138 ± 7.4%
[5]; [10]
  activity at 20 µM: 207 ± 9.5%
[6]; Mycobacterium tuberculosis
  activity at 10 µM: 228 ± 8.7%
  activity at 20 µM: 461 ± 7.9%
[7]; J774, 144 h
  inhibition at 10 µM: 4.8 ± 0.1%
[7]; [11]
  inhibition at 20 µM: 36.1 ± 0.1%

## Cc1cccc(C)c1OC1CCN(c2cncc(C(N)=O)n2)CC1 [RU-0273431, CC1=CC=CC(C)=C1OC1CCN(CC1)C1=NC(=CN=C1)C(N)=O]
[5]; [8]
  activity at 10 µM: 151%
[5]; [9]
  activity at 10 µM: 136 ± 9.1%
[5]; [10]
  activity at 20 µM: 135 ± 17.7%
[6]; Mycobacterium tuberculosis
  activity at 10 µM: 145 ± 16%
  activity at 20 µM: 159 ± 12.5%
[7]; J774, 144 h
  inhibition at 10 µM: 21.4 ± 7.4%
[7]; [11]
  inhibition at 20 µM: 34.9 ± 5.2%
